Measurements: patent publication US9364449B2, “Peptoid and synthetic oligomers, pharmaceutical compositions and methods of using same” (New York University, priority 2011, dated 2016)
Entries after “also recorded” stand apart in the source; their conditions may differ. Non-standard residues stand in square brackets, D forms with d. Residues, ends and D or L forms follow the SMILES beside them. Sar = CNCC(=O)O

Assays:
Aβ1-40 = target: T1, Aβ1-40 (Homo sapiens, UniProt P05067); experiment: Thioflavine-T aggregation assay, Aβ1-40 aggregated in the presence of compound; type: biochemical
T1 construct: made in house; host or cells: chemical solid-phase peptide synthesis (L-amino acids), RP-HPLC purified
T1 sequence (P05067 672-711): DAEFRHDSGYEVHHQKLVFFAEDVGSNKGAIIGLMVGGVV
Description: (§1) Peptoid modified derivatives of the KLVFFA (SEQ ID NO: 4) sequence were tested using Thioflavine-T aggregation assay to determine whether or not they are capable of forming fibrils themselves. […] In these treatment experiments, 100 μM Aβ40 or Aβ42 was mixed with 1-100 μM of the investigated compound and incubated up to 14 days. […] They were incubated alone or in the presence of peptoid modified derivatives of KLVFFA (SEQ ID NO: 4) sequence at concentrations of 1-100 μM. In addition, peptoid modified derivatives of KLVFFA (SEQ ID NO: 4) sequence were incubated alone as indicated above at the concentration of 100 μM. At the indicated intervals, samples containing 15 μg of incubated peptides were added to 1 mL of 50 mM/L glycine, pH 9.2 and 2 μM/L of Thioflavin-T (Sigma Chemical, Co.; St. Louis, Mo.). Fluorescence was measured at excitation 435 nm and emission 485 nm in a Hitachi F-2000 fluorescence spectrophotometer. A time scan of fluorescence was performed and three values after the decay reached a plateau (280, 290, 300 seconds) were averaged. The background fluorescence of 40 μl of Tris buffer added to 2 μM/L of Thioflavin-T solution was subtracted. Samples were run in duplicate. Differences in amount of fibrils formed by different peptides at particular time points were evaluated by one-way ANOVA followed by Tukey post hoc test.

[1] = Thioflavine-T aggregation assay, compound incubated alone (own fibril formation); type: physicochemical; conditions: compound alone at 100 μM
Description: as §1

[2] = test system: primary hippocampal neurons; experiment: Intraneuronal Aβ accumulation (Western blot of neuronal lysates, densitometry); type: cell-based, C57bL/6 mice; conditions: 10 μM Aβ40 with or without compound, p<0.01
Description: P0-P1 pups of C57bL/6 mice were killed by decapitation and brains were removed in aseptic conditions. To establish cultures of primary hippocampal neurons the hippocampi were dissected from both hemispheres under AmScope stereoscopic microscope (AmScope, Chino, Calif.). Fragments of tissue were placed in the ice-cold Ca^2+ and Mg^2+ free Hank's balanced salt solution (HBSS) and gently cut further into fine pieces which were then treated with 0.05% trypsin in HBSS for 10 min at 37° C. to obtain cell suspension. Following addition of 0.1% type-I-S trypsin inhibitor and 0.05% DNase I, the cell suspension was centrifuged at 500×g for 30 sec. The resulting pellet was triturated, centrifuged again at 500×g for 5 min and resuspended in the minimal essential medium (MEM) supplemented with heat-inactivated 10% fetal bovine serum (FBS), 0.5 mM glutamine, streptomycin (50 μg/ml) and penicillin (50 U/ml). The cell suspension was then filtered through a 70-μm mesh, and the cells were counted using hematocytometer (Hausser Scientific, Horsham, Pa.). The cells were seeded on poly-L-lysine coated 12-well plates. For biochemical analysis 5×10^5 cells were seeded directly on the bottom of each well whereas for immunohistochemistry a removable, poly-L-lysine coated round coverslip was placed on the bottom of the well and the number of seeded cells was reduced to 1×10^5 per well. […]

[3] = In vivo pharmacokinetic studies in rats

## CC(C)CC(NC(=O)C(CCCCN)NC(=O)CN)C(=O)NC(C(=O)NC(Cc1ccccc1)C(=O)N(C)CC(=O)NC(C)C(N)=O)C(C)C (stereo not shown) [GKLVFNmgA] (H-GKLVF[Sar]A-NH2; configuration not given here)
Aβ1-40; 1 μM compound, 100 μM Aβ1-40 (1:100 compound:Aβ ratio), p<0.001
  inhibitory effect on the aggregation of Aβ1-40: strong inhibitory effect
Aβ1-40; 100 μM Aβ1-40, 1-100 μM compound
  dose dependent effect on aggregation of Aβ1-40: strong dose dependent effect
[1]
  fibril formation by the compound itself: did not form fibrils itself; also recorded: does not form fibrils itself
[2]; 6 hr
  less Aβ accumulated in neurons after six hr of exposure: 29.8%
[2]; 24 hr
  less Aβ accumulated in neurons after 24 hr of exposure: 49.3%
[3]
  blood brain barrier (BBB) penetration: good
[3]; following intravenous administration
  detection in the cerebrospinal fluid (CSF): can be detected
[3]; intranasal
  level in plasma after intranasal delivery: High level
[3]; oral
  level in plasma following oral delivery: Lesser level
[3]; rat, in vivo
  half-life: < 2 h
